Test results published in patent publication US6492370B1, “Urea derivatives and pharmaceutical compositions thereof” (Santen Pharmaceutical Co., Ltd., priority 1998, dated 2002).

system: not given; assay: not given; details: not given

Row | melting point | SMILES
1 | 230 °C (dec.) | CC(=O)SCCN(CCc1ccccc1)C(=O)N[C@@H](Cc1ccccc1)C(=O)N1CCN(CC(=O)O)CC1 [Compound No. 13-32, 1-[(2S)-2-[3-[2-(Acetylthio)ethyl]-3-phenethylureido]-3-phenylpropionyl]-4-(carboxymethyl)piperazine]
2 | 90 °C | CC(=O)SCCN(CCc1ccccc1)C(=O)N[C@@H](Cc1ccc(-c2ccccc2)c([N+](=O)[O-])c1)C(=O)NCCN(C)C [Compound No. 27-19, (2S)-2-[3-[2-(Acetylthio)ethyl]-3-phenethylureido]-N-[2-(dimethylamino)ethyl]-3-(2-nitro-4-biphenylyl)propionamide]
3 | 110 °C | CC(=O)SCCN(CCc1ccccc1)C(=O)N[C@@H](Cc1ccc([N+](=O)[O-])cc1)C(=O)NCCN1C(=O)c2ccccc2C1=O [Compound No. 27-45, (2S)-2-[3-[2-(Acetylthio)ethyl]-3-phenethylureido]-3-(4-nitrophenyl)-N-[2-(phthalimido)ethyl]propionamide]
4 | 90 °C | CC(=O)SCCN(CCc1ccccc1)C(=O)N[C@@H](Cc1ccc([N+](=O)[O-])cc1)C(=O)NCCN(C)C1CCCCC1 [Compound No. 27-46, (2S)-2-[3-[2-(Acetylthio)ethyl]-3-phenethylureido]-N-[2-[(N-methyl)cyclohexylamino]ethyl]-3-(4-nitrophenyl)propionamide]
5 | 65 °C | CCN(CC)CCNC(=O)[C@H](Cc1ccc([N+](=O)[O-])cc1)NC(=O)N(CCSC(C)=O)CCc1ccccc1 [Compound No. 27-47, (2S)-2-[3-[2-(Acetylthio)ethyl]-3-phenethylureido]-N-[2-(diethylamino)ethyl]-3-(4-nitrophenyl)propionamide]
6 | 106 to 112.5 °C | CC(=O)SCCN(CCc1ccccc1)C(=O)N[C@@H](Cc1ccc([N+](=O)[O-])cc1)C(=O)NCCc1ccccn1 [Compound No. 27-50, (2S)-2-[3-[2-(Acetylthio)ethyl]-3-phenethylureido]-3-(4-nitrophenyl)-N-[2-(2-pyridyl)ethyl]propionamide]
7 | 90 °C | CC(=O)SCCN(CCc1ccccc1)C(=O)N[C@@H](Cc1ccc(F)cc1)C(=O)NCCN(C)C [Compound No. 27-54, (2S)-2-[3-[2-(Acetylthio)ethyl]-3-phenethylureido]-N-[2-(dimethylamino)ethyl]-3-(4-fluorophenyl)propionamide]
8 | 95 °C (dec.) | CC(=O)Nc1ccc(C[C@H](NC(=O)N(CCSC(C)=O)CCc2ccccc2)C(=O)NCCN(C)C)cc1 [Compound No. 27-82, (2S)-3-[4-(Acetylamino)phenyl]-2-[3-[2-(acetylthio)ethyl]-3-phenethylureido]-N-[2-(dimethylamino)ethyl]propionamide]

system: TNF-α production induced by lipopolysaccharide (LPS) stimulation; assay: In vivo test: TNF-α levels in plasma of LPS-administered rats; design: species or system rat; details: Rattus norvegicus, 2 h; female rats, oral administration of 50 mg/kg immediately after subcutaneous LPS, plasma two hours after LPS; read-out: Inhibition rate (%) (TNF-α production inhibition rates)
Method: (§1) Inhibitory effects on TNF-α production induced by lipopolysaccharide (LPS) stimulation were studied by in vitro or in vivo tests according to the method of McGeehan et al. (Nature, 370, […](1994)).
Female rats (five per group), body weight of about 200 g,about eight weeks old, were used as test animals. With respect to LPS to be used, LPS from Salmonella was dissolved in physiological saline (1 mg/ml). Test compounds were dissolved or uniformly suspended in a 1% aqueous methylcellulose solution.
The above-mentioned LPS solution (0.5 ml/kg) was subcutaneously administered to the rat. Immediately after the LPS administration, the test compound preparation liquid (5 ml/kg, containing 50 mg/kg test compound) was orally administered. Two hours after the LPS administration, blood was collected from abdominal aorta and was centrifuged at 4° C. and 3000 rpm for ten minutes. TNF-α levels in the obtained plasma were measured with a rat TNF-α-specific ELISA kit. TNF-α was not observed in the plasma with respect to an LPS-nonadministered group (control).
(§2) TNF-α production inhibition rates of the test compounds were determined by the following equation.
(§3) Inhibition rate (%)=[(A-B)/A]×100
A: TNF-α level in plasma of test compound-nonadministered group
B: TNF-α level in plasma of test compound-administered group

Row | SMILES | inhibition in vivo at 50 mg/kg [%]
9 | CSCCC(NC(=O)N(CCSC(C)=O)CCc1ccccc1)C(=O)N1CCN(C)CC1 (racemic) [Compound No. 27-4, 1-[(2RS)-2-[3-[2-(Acetylthio)ethyl]-3-phenethylureido]-4-(methylthio)butyryl]-4-methylpiperazine] | 60.9
10 | CC(=O)SCCN(CCC1CCCCC1)C(=O)N[C@@H](C)C(=O)N1CCN(C)CC1 [Compound No. 13-1, 1-[(2S)-2-[3-[2-(Acetylthio)ethyl]-3-(2-cyclohexylethyl)ureido]propionyl]-4-methylpiperazine] | 84.6
11 | CC(=O)SCCN(CCc1ccccc1)C(=O)N[C@H](C)C(=O)N1CCN(C)CC1 [Compound No. 13-3, 1-[(2R)-2-[3-[2-(Acetylthio)ethyl]-3-phenethylureido]propionyl]-4-methylpiperazine] | 66.8
12 | CC(=O)SCCN(CCCc1ccccc1)C(=O)N[C@@H](C)C(=O)N1CCN(C)CC1 [Compound No. 13-12, 1-[(2S)-2-[3-[2-(Acetylthio)ethyl]-3-(3-phenylpropyl)ureido]propionyl]-4-methylpiperazine] | 62.3
13 | CC(=O)SCCN(C(=O)N[C@@H](C)C(=O)N1CCN(C)CC1)c1ccccc1 [Compound No. 13-17, 1-[(2S)-2-[3-[2-(Acetylthio)ethyl]-3-phenylureido]propionyl]-4-methylpiperazine] | 50.3
14 | CC(=O)SCCN(CCc1ccccc1)C(=O)NCC(=O)N1CCN(C)CC1 [Compound No. 13-20, 1-[2-[3-[2-(Acetylthio)ethyl]-3-phenethylureido]acetyl]-4-methylpiperazine] | 66.6
15 | CC(=O)SCCN(CCC1CCCCC1)C(=O)N[C@@H](C)C(=O)N1CCCCC1 [Compound No. 13-49, 1-[(2S)-2-[3-[2-(Acetylthio)ethyl]-3-(2-cyclohexylethyl)ureido]propionyl]piperidine] | 90
16 | CC(=O)SCCN(CCC1CCCCC1)C(=O)N[C@@H](C)C(=O)N1CCOCC1 [Compound No. 13-50, 4-[(2S)-2-[3-[2-(Acetylthio)ethyl]-3-(2-cyclohexylethyl)ureido]propionyl]morpholine] | 93.5
17 | CC(=O)SCCN(CCC1CCCC1)C(=O)N[C@@H](C)C(=O)N1CCN(C)CC1 [Compound No. 13-57, 1-[(2S)-2-[3-[2-(Acetylthio)ethyl]-3-(2-cyclopentylethyl)ureido]propionyl]-4-methylpiperazine] | 90.1
18 | CC(=O)SCCN(CCC1=CCCCC1)C(=O)N[C@@H](C)C(=O)N1CCN(C)CC1 [Compound No. 27-84, 1-[(2S)-2-[3-[2-(Acetylthio)ethyl]-3-[2-(1-cyclohexenyl)ethyl]ureido]propionyl]-4-methylpiperazine] | 56.7

same assay, conditions: female rats, oral administration of 50 mg/kg immediately after subcutaneous LPS, plasma two hours after LPS

Row | SMILES | Inhibition rate (%) (TNF-α production inhibition rates)
19 | CC(=O)SCCN(CCOc1ccccc1)C(=O)N[C@@H](C)C(=O)N1CCN(C)CC1 [Compound No. 13-16] | 54.1

system: TNF-α production from human monocytic line THP-1 by LPS stimulation; assay: In vitro test: TNF-α production from human monocytic line THP-1 by LPS stimulation; type: cell-based; details: 2 h; test compound 10^−5 M, THP-1 cells 10^6/ml, LPS 2 μg/ml, 37° C. for two hours, human TNF-α specific ELISA; read-out: Inhibition rate (%) (TNF-α inhibition rates)
Method: as §1
Analyses were carried out by measuring TNF-α production from human monocytic line THP-1 by LPS stimulation.
As a medium, an RPMI1640medium containing a fetal bovine serum(10%), L-glutamine (2 mM), 2-mercaptoethanol (50 μM), penicillin (50 units/ml) and streptomycin (50 μg/ml) was used.
With respect to cells, human monocytic line THP-1 cells cultured in the above-mentioned medium were centrifuged at 100×g for five minutes to remove supernatant and then re-suspended in the medium. With respect to LPS, LPS from S. Typhimurium was dissolved in purified water and then diluted with the medium. Test compounds were dissolved in dimethyl sulfoxide (DMSO) and then diluted with the medium.
The cells (10^6/ml), LPS (2 μg/ml) and the test compound (10^−5 M) prepared as mentioned above were mixed, and this mixture was incubated at 37° C. for two hours and then centrifuged at 1000×g […] in cultured supernatant were measured with a human TNF-α specific ELISA kit. TNF-α production was not observed in the cultured supernatant in the absence of LPS (control).
as §2, §3
A: TNF-α level in supernatant of culture medium in the absence of test compound
B: TNF-α level in supernatant of culture medium in the presence of test compound

Row | SMILES | inhibition at 10 µM [%]
20 | CC(=O)SCCN(CCc1ccccc1)C(=O)N[C@@H](Cc1ccc([N+](=O)[O-])cc1)C(=O)NCCN(C(C)C)C(C)C [Compound No. 27-10] | 100
21 | CC(=O)SCCN(CCc1ccccc1)C(=O)N[C@@H](Cc1ccc(Cl)cc1)C(=O)NCCN(C)C [Compound No. 27-17, (2S)-2-[3-[2-(Acetylthio)ethyl]-3-phenethylureido]-3-(4-chlorophenyl)-N-[2-(dimethylamino)ethyl]propionamide] | 93.5
22 | CC(=O)SCCN(CCc1ccccc1)C(=O)N[C@@H](Cc1ccc(-c2ccccc2)c([N+](=O)[O-])c1)C(=O)NCCN(C)C [Compound No. 27-19, (2S)-2-[3-[2-(Acetylthio)ethyl]-3-phenethylureido]-N-[2-(dimethylamino)ethyl]-3-(2-nitro-4-biphenylyl)propionamide] | 93.5
23 | CC(=O)SCCN(CCc1ccccc1)C(=O)N[C@@H](Cc1ccc([N+](=O)[O-])cc1)C(=O)NCCN(C)C [Compound No. 27-41, (2S)-2-[3-[2-(Acetylthio)ethyl]-3-phenethylureido]-N-[2-(dimethylamino)ethyl]-3-(4-nitrophenyl)propionamide] | 93.8
24 | CN(C)CCNC(=O)[C@H](Cc1ccc([N+](=O)[O-])cc1)NC(=O)N(CCSC(=O)c1ccccc1)CCc1ccccc1 [Compound No. 27-42, (2S)-2-[3-[2-(Benzoylthio)ethyl]-3-phenethylureido]-N-[2-(dimethylamino)ethyl]-3-(4-nitrophenyl)propionamide] | 100
25 | CC(=O)SCCN(CCc1ccccc1)C(=O)N[C@@H](Cc1ccc([N+](=O)[O-])cc1)C(=O)NCCN(C)C1CCCCC1 [Compound No. 27-46, (2S)-2-[3-[2-(Acetylthio)ethyl]-3-phenethylureido]-N-[2-[(N-methyl)cyclohexylamino]ethyl]-3-(4-nitrophenyl)propionamide] | 100
26 | CCN(CC)CCNC(=O)[C@H](Cc1ccc([N+](=O)[O-])cc1)NC(=O)N(CCSC(C)=O)CCc1ccccc1 [Compound No. 27-47, (2S)-2-[3-[2-(Acetylthio)ethyl]-3-phenethylureido]-N-[2-(diethylamino)ethyl]-3-(4-nitrophenyl)propionamide] | 100
27 | COc1ccc(C[C@H](NC(=O)N(CCSC(C)=O)CCc2ccccc2)C(=O)NCCN(C)C)cc1 [Compound No. 27-56, (2S)-2-[3-[2-(Acetylthio)ethyl]-3-phenethylureido]-N-[2-(dimethylamino)ethyl]-3-(4-methoxyphenyl)propionamide] | 96.9
28 | CC(=O)SCCN(CCc1ccccc1)C(=O)N[C@@H](Cc1ccc2ccccc2c1)C(=O)NCCN(C)C [Compound No. 27-58, (2S)-2-[3-[2-(Acetylthio)ethyl]-3-phenethylureido]-N-[2-(dimethylamino)ethyl]-3-(2-naphthyl)propionamide] | 100
29 | CC(=O)SCCN(CCc1ccccc1)C(=O)N[C@@H](Cc1ccc(-c2ccccc2)cc1)C(=O)NCCN(C)C [Compound No. 27-59, (2S)-2-[3-[2-(Acetylthio)ethyl]-3-phenethylureido]-3-(4-biphenylyl)-N-[2-(dimethylamino)ethyl]propionamide] | 100
